Source: patent US20240173344A1, “USE OF GABAA RECEPTOR AS TARGET IN PREPARATION OR SCREENING OF DRUG FOR LOWERING BLOOD LIPID LEVEL, TREATING OBESITY, AND/OR IMPROVING METABOLISM” (SHANGHAI INSTITUTE OF ENDOCRINE AND METABOLIC DISEASES, priority 2022, published 2024)
Values joined by “and” are separate entries in the source; they are usually repeats but may differ in a detail not shown here. Equal values may be shown once.

Columns and labels:
obese mouse model = assay: Intraperitoneal puerarin derivatives in obese mouse model: body weight, blood lipid, jejunal TG; format: in vivo, mice; conditions: for Blood lipid level / Jejunal TG level: individual obese mice; for Effect on TG (lipid) absorption in small intestine / Effect on blood lipid level / Effect on body weight of the obese mouse: intraperitoneal injection, result in words; for Body weight change percentage, Mean: puerarin derivative-1; for Body weight change percentage: intraperitoneal puerarin derivative-1
Source text: (§1) In the present disclosure, the mice were fed with a high-fat diet in which a mass percentage of fat was 60% for 12 weeks, and when a body weight reached 35 g or more, animal models of alimentary obesity were successfully constructed. At a formal stage of the experiment (starting on day 0 in FIG. 1A, FIG. 3A, FIG. 6A, and FIG. 7A), the mice were raised in single cages, during which a daily food intake of each mouse model was accurately recorded, the feces was collected before and after drug intervention, and a daily body weight curve was recorded.
A method for determining TG in a sample was as follows: 20 mg to 30 mg of a sample was first weighed, a 5% NP40-containing lysis buffer was added, and a resulting mixture was homogenated and incubated in a metal bath at 95° C. for 5 min, which was repeated twice. A resulting homogenate was cooled to room temperature and then centrifuged at 15,000 rpm for 2 min to 3 min, and a resulting supernatant was pipetted for determination. A Biovision kit was used to determine TG. 2 μl of the supernatant was added to each well, and after a chromogenic reaction was completed, a value of each well was determined by a microplate reader. TG in the small intestinal tissue was quantified through a standard protein concentration; and a total amount of lipids excreted with the feces was calculated based on a measured value of the feces sample and a total mass of the sample at 24 h.

neurons in the DMV = assay: Chemogenetic (DREADDs) inhibition of DMV neurons by CNO in obese mice: body weight, blood lipid, fecal TG, jejunal TG; format: in vivo, C57BL/6J mice; conditions: single mice and mean; for Blood lipid level: Inhibition group (hM4D(Gi) virus + CNO i.p. 7 d)
Source text: as §1
The chemogenetic approach designer receptors exclusively activated by designer drugs (DREADDs) is a research method that controls neuronal excitability in a specific brain region in an animal model, where a downstream signaling pathway of a specific exogenous ligand clozapine N-oxide (CNO) is activated through an adeno-associated virus (AAV) modified by a G protein-coupled receptor (GPCR) to cause a change in neuronal excitability. […]
Four weeks after recovery from surgery, mice in the chemogenetic inhibition group and the control group each were intraperitoneally injected with CNO (Catalog No. BML-NS105, Enzo Life Sciences, USA) at a dose of 1.0 mg/kg BW every day to inhibit the neuronal activity of the DMV, and the daily food intake and body weight were measured and the feces was collected for the mice. The mice were sacrificed after being continuously injected with CNO for 7 d to inhibit the DMV, mouse tissue samples were collected, and physiological and metabolic indexes were detected and analyzed.
A method for determining TG in a sample was as follows: 20 mg to 30 mg of a sample was first weighed, a 5% NP40-containing lysis buffer was added, and a resulting mixture was homogenated and incubated in a metal bath at 95° C. for 5 min, which was repeated twice. […] 2 μl of the supernatant was added to each well, and after a chromogenic reaction was completed, a value of each well was determined by a microplate reader. […]

[1] = group mean of 8 mice, puerarin derivative-3 group
[2] = group mean of 10 mice, puerarin derivative-2 group

OCC1OC2c3c(ccc4c3OC=C(c3ccc(O)cc3)C4O)OC2C(O)C1O (centres unmarked) [puerarin derivative-3]
Body weight change curve, Mean (obese mouse model; Day 0, group mean of 8 mice, puerarin derivative-3): 0.00%
Body weight change curve (obese mouse model; Day 0, individual obese mice, puerarin derivative-3): 0.00%
Body weight change curve, Mean (obese mouse model; Day 1, group mean of 8 mice, puerarin derivative-3): −2.37%
Body weight change curve (obese mouse model; Day 1, individual obese mice, puerarin derivative-3): −3.96% and −2.50% and −1.71% and −2.35% and −2.28% and −0.26% and −2.59% and −3.32%
Body weight change curve, Mean (obese mouse model; Day 2, group mean of 8 mice, puerarin derivative-3): −3.16%
Body weight change curve (obese mouse model; Day 2, individual obese mice, puerarin derivative-3): −5.57% and −1.65% and −3.77% and −2.65% and −4.06% and −0.80% and −2.88% and −3.90%
Body weight change curve, Mean (obese mouse model; Day 3, group mean of 8 mice, puerarin derivative-3): −3.01%
Body weight change curve (obese mouse model; Day 3, individual obese mice, puerarin derivative-3): −1.49% and −2.50% and −4.68% and −2.65% and −4.36% and −1.34% and −2.88% and −4.19%
Body weight change curve, Mean (obese mouse model; Day 4, group mean of 8 mice, puerarin derivative-3): −3.76%
Body weight change curve (obese mouse model; Day 4, individual obese mice, puerarin derivative-3): −2.09% and −3.65% and −6.24% and −2.65% and −3.76% and −1.07% and −4.39% and −6.27%
Body weight change curve, Mean (obese mouse model; Day 5, group mean of 8 mice, puerarin derivative-3): −4.10%
Body weight change curve (obese mouse model; Day 5, individual obese mice, puerarin derivative-3): −3.02% and −3.65% and −6.24% and −2.65% and −4.06% and −1.88% and −5.00% and −6.27%
Body weight change curve, Mean (obese mouse model; Day 6, group mean of 8 mice, puerarin derivative-3): −4.33%
Body weight change curve (obese mouse model; Day 6, individual obese mice, puerarin derivative-3): −3.33% and −5.13% and −6.24% and −2.65% and −3.46% and −4.41% and −2.88% and −6.57%
Body weight change curve, Mean (obese mouse model; Day 7, group mean of 8 mice, puerarin derivative-3): −5.42%
Body weight change curve (obese mouse model; Day 7, individual obese mice, puerarin derivative-3): −5.24% and −6.65% and −7.51% and −3.26% and −3.76% and −4.13% and −5.93% and −6.88%
Blood lipid level, Mean (obese mouse model; [1]): 1.2750 mM
Jejunal TG level, Mean (obese mouse model; [1]): 1.2900 μmol/mg/protein
Blood lipid level (obese mouse model; puerarin derivative-3 group): 1.62 mM and 1.06 mM (2×) and 1.69 mM and 1.23 mM and 1.07 mM and 1.29 mM and 1.18 mM
Jejunal TG level (obese mouse model; puerarin derivative-3 group): 1.29 μmol/mg/protein and 1.48 μmol/mg/protein (2×) and 1.36 μmol/mg/protein and 1.27 μmol/mg/protein and 1.53 μmol/mg/protein and 1.06 μmol/mg/protein and 0.85 μmol/mg/protein
Effect on TG (lipid) absorption in small intestine (obese mouse model): inhibiting the small intestinal lipid absorption
Effect on blood lipid level (obese mouse model): reducing blood lipid
Effect on body weight of the obese mouse (obese mouse model): reducing blood lipid and body weight

C[N+]1([O-])CCN(C2=Nc3cc(Cl)ccc3Nc3ccccc32)CC1 [CNO, clozapine N-oxide]
Blood lipid level (neurons in the DMV): 0.7414 mM and 0.9111 mM and 0.6521 mM and 0.4645 mM and 0.8754 mM and 0.6342 mM and 0.7146 mM
Blood lipid level (neurons in the DMV; mean): 0.7169 mM
Body weight curve change percentage (neurons in the DMV; Inhibition group (hM4D(Gi) virus in DMV, CNO 1.0 mg/kg BW i.p. daily), Day 0 baseline): 0.00%

OCC1OC(c2c(O)ccc3c2OC=C(c2ccc(O)cc2)C3O)C(O)C(O)C1O (centres unmarked) [Derivative-1]
Body weight change percentage, Mean (obese mouse model; Day 0, group mean of 10 mice): 0.00%
Body weight change percentage (obese mouse model; Day 0, individual obese mice): 0.00%
Body weight change percentage, Mean (obese mouse model; Day 1, group mean of 10 mice): −1.88%
Body weight change percentage (obese mouse model; Day 1, individual obese mice): −0.25% and −2.34% and −2.27% and −3.30% and −2.93% and 0.00% and −2.45% and 0.28% and −2.89% and −2.63%
Body weight change percentage, Mean (obese mouse model; Day 2, group mean of 10 mice): −2.10%
Body weight change percentage (obese mouse model; Day 2, individual obese mice): −0.74% and −1.86% and −2.56% and −3.79% and −4.32% and −0.26% and −2.20% and 0.00% and −2.62% and −2.63%
Body weight change percentage, Mean (obese mouse model; Day 3, group mean of 10 mice): −2.96%
Body weight change percentage (obese mouse model; Day 3, individual obese mice): −1.24% and −3.06% and −2.56% and −4.04% and −4.32% and −1.55% and −2.45% and −1.14% and −4.53% and −4.77%
Body weight change percentage, Mean (obese mouse model; Day 4, group mean of 10 mice): −3.71%
Body weight change percentage (obese mouse model; Day 4, individual obese mice): −0.99% and −3.79% and −3.73% and −6.05% and −4.88% and −3.15% and −3.46% and −2.30% and −4.26% and −4.46%
Body weight change percentage, Mean (obese mouse model; Day 5, group mean of 10 mice): −3.61%
Body weight change percentage (obese mouse model; Day 5, individual obese mice): −1.74% and −3.55% and −4.33% and −6.05% and −3.48% and −2.08% and −2.95% and −3.79% and −3.70% and −4.46%
Body weight change percentage, Mean (obese mouse model; Day 6, group mean of 10 mice): −3.95%
Body weight change percentage (obese mouse model; Day 6, individual obese mice): −4.08% and −3.06% and −2.56% and −6.31% and −5.17% and −2.35% and −3.21% and −2.60% and −5.09% and −5.08%
Body weight change percentage, Mean (obese mouse model; Day 7, group mean of 10 mice): −4.08%
Body weight change percentage (obese mouse model; Day 7, individual obese mice): −3.81% and −2.10% and −5.25% and −6.56% and −6.62% and −2.35% and −2.20% and −3.79% and −4.26% and −3.84%
Effect on TG (lipid) absorption in small intestine (obese mouse model): inhibit the TG absorption in small intestine
Effect on blood lipid level (obese mouse model): effectively reduce blood lipid level
Effect on body weight of the obese mouse (obese mouse model): significantly reduce the body weight

Cc1ccc(-c2coc3c(C4OC(CO)C(O)C(O)C4O)c(O)ccc3c2=O)cc1 (centres unmarked) [puerarin derivative-2]
Body weight change curve, Mean (obese mouse model; Day 0, group mean of 10 mice, puerarin derivative-2): 0.00%
Body weight change curve (obese mouse model; Day 0, individual obese mice, puerarin derivative-2): 0.00%
Body weight change curve, Mean (obese mouse model; Day 1, group mean of 10 mice, puerarin derivative-2): −1.67%
Body weight change curve (obese mouse model; Day 1, individual obese mice, puerarin derivative-2): −2.39% and −0.56% and −1.13% and −2.22% and 0.90% and −2.19% and −0.28% and −2.70% and −2.55% and −3.57%
Body weight change curve, Mean (obese mouse model; Day 2, group mean of 10 mice, puerarin derivative-2): −2.33%
Body weight change curve (obese mouse model; Day 2, individual obese mice, puerarin derivative-2): −2.74% and −2.26% and −1.99% and −4.21% and 0.60% and −2.75% and −0.84% and −2.15% and −2.88% and −4.10%
Body weight change curve, Mean (obese mouse model; Day 3, group mean of 10 mice, puerarin derivative-2): −2.88%
Body weight change curve (obese mouse model; Day 3, individual obese mice, puerarin derivative-2): −2.74% and −3.43% and −3.16% and −4.55% and 0.00% and −2.75% and −1.41% and −3.55% and −2.88% and −4.37%
Body weight change curve, Mean (obese mouse model; Day 4, group mean of 10 mice, puerarin derivative-2): −3.46%
Body weight change curve (obese mouse model; Day 4, individual obese mice, puerarin derivative-2): −2.74% and −3.73% and −3.16% and −3.87% and −0.91% and −3.89% and −1.13% and −4.40% and −4.21% and −6.57%
Body weight change curve, Mean (obese mouse model; Day 5, group mean of 10 mice, puerarin derivative-2): −3.68%
Body weight change curve (obese mouse model; Day 5, individual obese mice, puerarin derivative-2): −2.74% and −4.03% and −3.76% and −4.21% and −0.61% and −3.89% and −1.99% and −4.11% and −4.89% and −6.57%
Body weight change curve, Mean (obese mouse model; Day 6, group mean of 10 mice, puerarin derivative-2): −3.68%
Body weight change curve (obese mouse model; Day 6, individual obese mice, puerarin derivative-2): −2.74% and −4.03% and −3.16% and −3.54% and −0.91% and −4.47% and −4.67% and −3.55% and −2.88% and −6.85%
Body weight change curve, Mean (obese mouse model; Day 7, group mean of 10 mice, puerarin derivative-2): −3.98%
Body weight change curve (obese mouse model; Day 7, individual obese mice, puerarin derivative-2): −3.45% and −2.26% and −2.57% and −3.87% and −2.15% and −5.66% and −4.37% and −2.43% and −5.93% and −7.13%
Blood lipid level, Mean (obese mouse model; [2]): 1.0006 mM
Jejunal TG level, Mean (obese mouse model; [2]): 1.3072 μmol/mg/protein
Blood lipid level (obese mouse model; puerarin derivative-2 group): 1.0874 mM and 1.0496 mM and 0.6903 mM and 0.8792 mM and 0.6729 mM and 1.3428 mM and 0.9551 mM and 1.1631 mM and 1.1347 mM and 1.0307 mM
Jejunal TG level (obese mouse model; puerarin derivative-2 group): 1.7043 μmol/mg/protein and 1.5325 μmol/mg/protein and 1.5551 μmol/mg/protein and 1.3572 μmol/mg/protein and 1.1252 μmol/mg/protein and 1.1433 μmol/mg/protein and 1.3121 μmol/mg/protein and 1.0924 μmol/mg/protein and 1.2506 μmol/mg/protein and 0.9988 μmol/mg/protein
Effect on TG (lipid) absorption in small intestine (obese mouse model): inhibiting the small intestinal lipid absorption
Effect on blood lipid level (obese mouse model): reducing blood lipid
Effect on body weight of the obese mouse (obese mouse model): reducing blood lipid and body weight
